Results as given in paper PMC10415494, “Ga(III) pyridinecarboxylate complexes: potential analogues of the second generation of therapeutic Ga(III) complexes?” (Journal of Biological Inorganic Chemistry, 2023).

Experiments:
[1] = MTS antiproliferative assay (non-cancer cells); conditions: human
[2] = system: any model microorganism; test: Antimicrobial activity, macrodilution method, all model microorganisms together; format: cell-based; conditions: free ligands, range 0.5–2.0 mM
Protocol: Cultures of bacteria (in Mueller–Hinton broth, MHB) and yeasts (in Sabouraud’s growth medium, SB) were incubated under shaking (250 rpm) at 37 °C. The growth of bacteria and yeasts was evaluated by measuring the absorbance of the growing cultures (A590) until the cultures reached the stationary growth phase. The effects of gallium(III) complexes on the growth of filamentous fungi Rhizopus oryzae (R. oryzae) CCM F-8284, Alternaria alternata (A. alternata) CCM F-128 and Microsporum gypseum (M. gypseum) CCM F-8342 (Czech Collection of Microorganisms) were observed by macrodilution method on solidified potato-dextrose growth medium (PDA). During culturing, the diameters of growing fungal colonies were measured at regular intervals. Briefly, the antimicrobial activity (bacteria and yeasts) gallium(III) complexes/ ligands were added to the microbial culture at the beginning of the cultivation-to the lag phase. Pure gallium(III) complexes/ligands were dissolved in DMSO. The final concentration of DMSO never exceeded 1.0 vol. % neither in control nor treated samples. Concentration of gallium(III) complexes used in experimental work for evaluation of antimicrobial activity was used in the range of 0.05–2 mM, for the free ligands in the range of 0.5–2.0 mM in all experiments. […] The IC50 values were evaluated from toxicity curves. All the obtained results of antimicrobial activity were compared to the activity of Ga(NO3)3.

## O=C(O)c1cccc(C(=O)O)n1 [H2Dpic, dipicolinic acid]
[1]
  IC50 at 72 h: > 200 µM

## O=C(O)c1ccccn1 [HPic, picolinic acid]
[2]
  effect on the growth of any model microorganism: did not affect the growth
[1]; human dermal fibroblasts (HDF)
  IC50 at 72 h: > 200 µM
